Experimental data taken from ChEMBL document CHEMBL6103561, “Chemical dissection of selective myeloid leukemia-1 inhibitors: How they were found and evolved” (Eur J Med Chem, 2025).
In brackets after ≈: the same amount, converted by molar mass.

Legend:
[1] = target: T1, Induced myeloid leukemia cell differentiation protein Mcl-1 (Homo sapiens, UniProt Q07820)
Bcl-2-like protein 1 [2] = target: T2, Bcl-2-like protein 1 (Homo sapiens, UniProt Q07817); assay: Binding affinity to Bcl-XL (unknown origin) assessed as inhibition constant by fluorescence polarization assay
T2 sequence (Q07817 whole entry): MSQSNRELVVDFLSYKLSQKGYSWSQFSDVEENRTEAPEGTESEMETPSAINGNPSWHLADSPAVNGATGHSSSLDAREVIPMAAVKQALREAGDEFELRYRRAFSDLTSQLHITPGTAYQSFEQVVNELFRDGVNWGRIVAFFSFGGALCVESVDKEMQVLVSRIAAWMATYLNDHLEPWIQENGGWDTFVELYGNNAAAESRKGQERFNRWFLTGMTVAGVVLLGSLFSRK

Bcl-2-like protein 1 [3] = target: T2, Bcl-2-like protein 1
[4] = target: T1, Induced myeloid leukemia cell differentiation protein Mcl-1; remark: listed apart in the source
Description: Inhibition of N-terminal GST-tagged human MCL-1 (1 to 23 residues) extracted from Escherichia coli BL21 (DE3) by TR-FRET assay

[5] = target: T1, Induced myeloid leukemia cell differentiation protein Mcl-1; remark: listed apart in the source
Description: Binding affinity to MCL-1 (unknown origin) assessed as inhibition constant by TR-FRET assay

Bcl-2-like protein 1 [6] = target: T2, Bcl-2-like protein 1; assay: Binding affinity to BCL-XL (unknown origin) assessed as inhibition constant incubated for 60 mins by TR-FRET assay
MV4-11 [7] = assay: Antiproliferative activity against human MV4-11 cells
[8] = target: T3, Apoptosis regulator Bcl-2 (Homo sapiens, UniProt P10415); assay: Binding affinity to BCL-2 (unknown origin) assessed as inhibition constant incubated for 60 mins by TR-FRET assay
T3 sequence (P10415 whole entry): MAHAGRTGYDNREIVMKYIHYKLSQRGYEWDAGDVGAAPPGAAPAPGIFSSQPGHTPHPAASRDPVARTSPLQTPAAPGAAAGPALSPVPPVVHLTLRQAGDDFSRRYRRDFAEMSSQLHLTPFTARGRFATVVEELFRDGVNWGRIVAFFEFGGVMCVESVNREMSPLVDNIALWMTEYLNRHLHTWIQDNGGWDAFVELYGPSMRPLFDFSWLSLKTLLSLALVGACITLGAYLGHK

NCI-H929 [9] = assay: Antiproliferative activity against human NCI-H929 cells assessed as reduction in cell viability
OPM-2 = assay: Antiproliferative activity against human OPM-2 cells
[10] = Solubility of compound in water at pH 7 measured after 24 hrs by HPLC analysis
[11] = target: T3, Apoptosis regulator Bcl-2
Description: Binding affinity to BCL-2 (unknown origin) as assessed as inhibition constant

[12] = target: T1, Induced myeloid leukemia cell differentiation protein Mcl-1; remark: listed apart in the source
Description: Binding affinity to MCL-1 (unknown origin) assessed as inhibition constant

NCI-H929 [13] = assay: Growth inhibition of human NCI-H929 cells
[14] = Clearance in mouse at 1 mg/kg, iv; conditions: in vivo
in vivo = conditions: mouse
[15] = target: Voltage-gated inwardly rectifying potassium channel KCNH2 (Homo sapiens, UniProt Q12809)
Chain of Voltage-gated inwardly rectifying potassium channel KCNH2 (Q12809 whole entry): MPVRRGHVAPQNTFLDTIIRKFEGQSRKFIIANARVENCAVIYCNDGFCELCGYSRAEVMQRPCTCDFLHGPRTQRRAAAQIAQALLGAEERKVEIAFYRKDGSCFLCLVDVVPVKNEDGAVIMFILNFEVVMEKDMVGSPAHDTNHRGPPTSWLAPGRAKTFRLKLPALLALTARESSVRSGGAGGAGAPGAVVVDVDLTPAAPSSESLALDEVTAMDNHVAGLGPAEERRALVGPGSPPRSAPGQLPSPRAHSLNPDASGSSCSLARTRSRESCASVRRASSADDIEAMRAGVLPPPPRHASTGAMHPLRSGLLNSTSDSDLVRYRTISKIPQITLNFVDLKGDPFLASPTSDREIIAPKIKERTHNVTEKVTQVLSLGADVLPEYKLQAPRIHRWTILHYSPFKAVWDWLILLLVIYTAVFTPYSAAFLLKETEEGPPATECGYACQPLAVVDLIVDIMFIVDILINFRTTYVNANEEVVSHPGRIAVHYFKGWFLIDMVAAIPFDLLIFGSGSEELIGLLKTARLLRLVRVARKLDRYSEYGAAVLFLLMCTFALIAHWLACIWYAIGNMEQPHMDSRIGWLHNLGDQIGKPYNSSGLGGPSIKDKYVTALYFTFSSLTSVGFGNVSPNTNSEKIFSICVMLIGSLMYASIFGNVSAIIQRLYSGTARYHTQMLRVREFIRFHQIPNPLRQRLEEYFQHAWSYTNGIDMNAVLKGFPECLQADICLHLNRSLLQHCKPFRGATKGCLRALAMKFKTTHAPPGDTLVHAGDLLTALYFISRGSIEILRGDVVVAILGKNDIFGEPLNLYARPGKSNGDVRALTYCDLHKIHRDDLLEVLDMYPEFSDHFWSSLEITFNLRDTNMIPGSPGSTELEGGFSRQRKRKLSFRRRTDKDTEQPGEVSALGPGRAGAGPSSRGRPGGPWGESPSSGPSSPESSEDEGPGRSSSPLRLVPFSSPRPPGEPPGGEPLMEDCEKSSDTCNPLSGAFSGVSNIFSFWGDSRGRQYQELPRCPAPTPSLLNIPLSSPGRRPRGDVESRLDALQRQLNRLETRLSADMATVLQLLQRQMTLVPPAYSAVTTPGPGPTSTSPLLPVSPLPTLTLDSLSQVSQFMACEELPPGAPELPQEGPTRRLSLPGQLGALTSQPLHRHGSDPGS

Bcl-2-like protein 1 [16] = target: T2, Bcl-2-like protein 1; assay: Binding affinity to BCL-XL (unknown origin) assessed as inhibition constant
[17] = target: T1, Induced myeloid leukemia cell differentiation protein Mcl-1; remark: listed apart in the source
HL-60 [18] = assay: Cytotoxicity against human HL-60 cells assessed as reduction in cell viability incubated for 48 hrs by CCK-8 assay; conditions: HL-60, 48 h
[19] = target: T1, Induced myeloid leukemia cell differentiation protein Mcl-1; assay: Binding affinity to N-terminal MCL-1 (unknown origin) using 5-FAM peptide as substrate by fluorescence polarization assay
Bcl-2-like protein 1 [20] = target: T2, Bcl-2-like protein 1; remark: listed apart in the source
Description: Inhibition of Bcl-XL (unknown origin) by FRET assay

[21] = target: T1, Induced myeloid leukemia cell differentiation protein Mcl-1; remark: listed apart in the source
Description: Inhibition of MCL-1 (unknown origin)

[22] = Antiproliferative activity against human BL-2 cells; conditions: BL2
[23] = target: T1, Induced myeloid leukemia cell differentiation protein Mcl-1; remark: listed apart in the source
Description: Binding affinity to MCL-1 (unknown origin) assessed as inhibition constant by fluorescence polarization assay

HL-60 [24] = assay: Growth inhibition of human HL-60 cells
MV4-11 [25] = assay: Antiproliferative activity against human MV4-11 cells assessed as reduction in cell viability
[26] = target: T3, Apoptosis regulator Bcl-2; remark: listed apart in the source
Description: Inhibition of Bcl-2 (unknown origin) by fluorescence polarization assay

MOLP-8 = assay: Antiproliferative activity against human MOLP8 cells

T1 sequence (Q07820 whole entry): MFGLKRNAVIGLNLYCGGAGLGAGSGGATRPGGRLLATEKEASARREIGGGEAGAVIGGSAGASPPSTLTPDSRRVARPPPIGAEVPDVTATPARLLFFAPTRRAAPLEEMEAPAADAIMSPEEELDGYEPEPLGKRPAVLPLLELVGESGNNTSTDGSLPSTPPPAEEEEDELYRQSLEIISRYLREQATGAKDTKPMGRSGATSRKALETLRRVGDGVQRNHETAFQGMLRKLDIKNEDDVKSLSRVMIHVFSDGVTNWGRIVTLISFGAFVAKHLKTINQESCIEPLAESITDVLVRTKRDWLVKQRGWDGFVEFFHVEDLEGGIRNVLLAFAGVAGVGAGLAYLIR

## Cc1ccc(S(=O)(=O)/N=C2/C=C(Sc3nc[nH]n3)C(=O)c3ccccc32)cc1
[1]
  IC50: 14 nM

## CC(C)c1ccccc1Cc1cc(C(=O)Nc2ccc(S(=O)(=O)c3ccccc3C(C)(C)C)cc2)c(O)c(O)c1O
Bcl-2-like protein 1 [2]
  Ki: 290 nM

## O=C(c1ccccc1O)c1[nH]c(Cl)c(Cl)c1-n1c(C(=O)c2ccccc2O)cc(Cl)c1Cl
Bcl-2-like protein 1 [3]
  IC50: > 100000 nM
[4]
  IC50: 10100 nM

## O=C(O)CSc1ccc(C(=O)c2[nH]c(Cl)c(Cl)c2-n2c(C(=O)c3ccc(SCC(=O)O)cc3O)cc(Cl)c2Cl)c(O)c1
Bcl-2-like protein 1 [3]
  IC50: > 100000 nM

## O=C(O)Cn1cc(-c2cc(O)c(C(=O)c3[nH]c(Cl)c(Cl)c3-n3c(C(=O)c4cc(Cl)c(-c5cn(CC(=O)O)nn5)cc4O)cc(Cl)c3Cl)cc2Cl)nn1
Bcl-2-like protein 1 [3]
  IC50: > 50000 nM

## Cc1nn(C)c(C)c1-c1cccc2c(CCCOc3cccc4ccccc34)c(C(=O)O)n(CCN3CCOCC3)c12
[5]
  Ki: 1 nM

## Cc1nn(C)c(COc2ccc(N3CCN(S(=O)(=O)N(C)C)CC3)cc2)c1-c1cccc2c(CCCOc3cccc4ccccc34)c(C(=O)O)n(CCN3CCOCC3)c12
Bcl-2-like protein 1 [6]
  Ki: > 660 nM
MV4-11 [7]
  EC50: 1860 nM
[8]
  Ki: 132 nM

## CC(=O)N1CCN(c2ccc(OCc3nn(C)c(C)c3-c3cccc4c(CCCOc5cccc6ccccc56)c(C(=O)O)n(Cc5cccnc5)c34)cc2)CC1
[5]
  Ki: 1 nM

## Cc1c(-c2cccc3c(CCCOc4cccc5ccccc45)c(C(=O)O)n(C)c23)c(COc2ccc(B(O)O)c(C=O)c2)nn1C
[1]
  IC50: 4200 nM

## Cc1c(-c2c(-c3ccc(F)o3)sc3ncnc(O[C@H](Cc4ccccc4OCc4ccnn4CC(F)(F)F)C(=O)O)c23)ccc(OCCN2CCN(C)CC2)c1Cl
NCI-H929 [9]
  IC50: 1 nM

## COc1ccccc1-c1nccc(COc2ccccc2C[C@@H](Oc2ncnc3sc(-c4ccc(F)cc4)c(-c4ccc(OCCN5CCN(C)CC5)c(Cl)c4C)c23)C(=O)O)n1
NCI-H929 [9]
  IC50: 1 nM

## CO[C@H]1/C=C/C[C@H](C)[C@@H](C)S(=O)(=O)NC(=O)c2ccc3c(c2)N(C[C@@H]2CCO[C@H]21)C[C@@]1(CCCc2cc(Cl)ccc21)CO3
OPM-2
  IC50: 432 nM
[10]
  solubility at 24 h: < 0.1 µM

## CO[C@H]1/C(F)=C/C[C@H](C)[C@@H](C)S(=O)(=O)NC(=O)c2ccc3c(c2)N(C[C@@H]2CCO[C@H]21)C[C@@]1(CCCc2cc(Cl)ccc21)CO3
OPM-2
  IC50: 191 nM
[10]
  solubility at 24 h: 8.3 µM (≈ 5.37 µg/mL)

## CO[C@@H]1/C(F)=C/C[C@H](C)[C@@H](C)S(=O)(=O)NC(=O)c2ccc3c(c2)N(C[C@@H]2CCO[C@H]21)C[C@@]1(CCCc2cc(Cl)ccc21)CO3
OPM-2
  IC50: 1120 nM
[10]
  solubility at 24 h: 11.2 µM (≈ 7.25 µg/mL)

## Cc1c(-c2cccc3c(CCCOc4cccc5ccccc45)c(C(=O)O)n(C)c23)c(COc2ccccc2)nn1C
[1]
  IC50: 4200 nM

## Cc1cc(OCCCn2cc(-c3cccc(C(F)(F)F)c3)c3cc(C(=O)O)ccc32)cc(C)c1Cl
[11]
  Ki: 560 nM
[12]
  Ki: 400 nM

## Cc1cc(Cl)cc(C)c1OCCCc1c2n(c3c(-c4c(C)nn(C)c4C)c(Cl)ccc13)CCCN(c1cn(C)c3ccc(C(=O)O)cc13)C2=O
NCI-H929 [13]
  GI50: 300 nM
[5]
  Ki: < 0.1 nM
[14]
  clearance: 245 mL/min/kg
In vivo
  half-life: 34.2 min

## C#Cc1ccc(OCc2nn(C)c(C)c2-c2cccc3c(CCCOc4cccc5ccccc45)c(C(=O)O)n(C)c23)cc1C=O
[1]
  IC50: 4200 nM

## CCOP(=O)(OCC)c1ccc(C(=O)c2[nH]c(Cl)c(Cl)c2-n2c(C(=O)c3ccc(P(=O)(OCC)OCC)cc3O)cc(Cl)c2Cl)c(O)c1
Bcl-2-like protein 1 [3]
  IC50: > 100000 nM

## COCCOCc1nn(C)c2c1CSCc1cc(n(C)n1)CSc1cc(c3ccc(F)cc3c1)OCCCc1c(C(=O)O)n(CCN3CCOCC3)c3c-2c(Cl)ccc13
Bcl-2-like protein 1 [6]
  Ki: 0.02 nM
[15]
  IC50: > 30000 nM
[10]
  solubility at 24 h: 550 µM (≈ 475 µg/mL)

## Cc1c(-c2cccc3c(CCCOc4cccc5ccccc45)c(C(=O)O)n(C)c23)c(COc2ccc(S(=O)(=O)F)cc2)nn1C
[1]
  IC50: 4200 nM

## Cc1cc(Cl)cc(C)c1OCCCc1c2n(c3c(-c4c(C)nn(C)c4C)c(Cl)ccc13)[C@H](C)CCN(c1cn(C)c3ccc(C(=O)O)cc13)C2=O
NCI-H929 [13]
  GI50: 190 nM
[5]
  Ki: 0.097 nM

## CC[C@@H]1CC/C=C/[C@H](O)[C@@H]2CC[C@H]2CN2C[C@@]3(CCc4cc(Cl)ccc43)COc3ccc(cc32)C(=O)NS1(=O)=O
[12]
  IC50: 0.05 nM

## COCCOCc1nn(C)c2c1CSCc1cc(n(C)n1)CSc1cc(c3ccc(F)cc3c1)OCCCc1c(C(=O)O)n(C)c3c-2c(Cl)ccc13
Bcl-2-like protein 1 [6]
  Ki: 0.018 nM
[15]
  IC50: > 30000 nM
[10]
  solubility at 24 h: 580 µM (≈ 443 µg/mL)

## COc1ccccc1-c1nccc(COc2ccc3cc2C[C@H](C(=O)O)Oc2ncnc4sc(-c5ccc(F)cc5)c(c24)-c2ccc(c(Cl)c2C)CN(CCN2CCN(C)CC2)CO3)n1
Bcl-2-like protein 1 [16]
  Ki: > 660 nM
[11]
  Ki: > 1200 nM
[12]
  Ki: 5.54 nM

## O=C(O)CCn1cc(-c2cccc(C(F)(F)F)c2)c2ccc(-c3ccccc3)cc21
[11]
  Ki: 2380 nM
[12]
  Ki: 410 nM

## COCCOCn1nc(C)c2c1CSCc1cc(n(C)n1)CCc1cc(c3ccc(F)cc3c1)OCCCn1c(C(=O)O)c(C)c3c-2c(Cl)ccc31
Bcl-2-like protein 1 [6]
  Ki: 0.015 nM
[15]
  IC50: > 30000 nM
[10]
  solubility at 24 h: 3140 µM (≈ 2340 µg/mL)

## CC(C)CN1C[C@@H](c2ccc(Cl)cc2Cl)Oc2ccc(C(=O)O)cc21
[17]
  IC50: 55000 nM

## COc1n[nH]cc1C(=O)NS1(=O)=NC(=O)c2ccc3c(c2)N(C[C@@H]2CCO[C@H]2[C@H](OC)/C(F)=C/C[C@H](C)C1)C[C@@]1(CCCc2cc(Cl)ccc21)CO3 (some centres not stated)
OPM-2
  IC50: 44 nM
[10]
  solubility at 24 h: 520 µM (≈ 393 µg/mL)

## Cc1ccc(Oc2ccc(O)c(O)c2)c(-c2ccsc2S(=O)(=O)NCCNC(=O)Nc2cc(C(F)(F)F)cc(C(F)(F)F)c2)c1
HL-60 [18]
  IC50: 3700 nM
[19]
  Ki: 490 nM

## Cc1cc(S(=O)(=O)NC(=O)c2cc(C)c(-c3cccc4c(CCCOc5cccc6ccccc56)c(C(=O)O)nn34)c(C)c2)ccc1N[C@H](CCN(C)C)CSc1ccccc1
Bcl-2-like protein 1 [20]
  IC50: 3 nM
[21]
  IC50: 8 nM

## CC1(C)CC[C@@H](OC(=O)/C=C/c2ccccc2)[C@]2(C)C(C=O)C(C=O)=C[C@H](O)[C@@]12C (some centres not stated)
[22]
  IC50: 4000 nM
[15]
  IC50: > 10000 nM
[23]
  Ki: 300 nM

## Cc1c(Cl)c2c(Cl)c(C)c1-c1c(-c3ccc(F)cc3)sc3ncnc(c13)O[C@@H](C(=O)O)Cc1cc(ccc1OCc1ccnc(-c3ccc(OC[C@H]4COCCO4)cc3)n1)OCC(CN1CCN(C)CC1)O2 (some centres not stated)
NCI-H929 [9]
  IC50: 40 nM
[5]
  Ki: 0.01 nM

## O=S(=O)(Nc1cc(Sc2ccco2)c(O)c2ccccc12)c1cccs1
[12]
  Ki: > 100000 nM

## CC(=O)N1CCN(c2ccc(OCc3cccc(-c4ccc5c(-c6cccc(C(F)(F)F)c6)cn(CCC(=O)O)c5c4)c3)cc2)CC1
HL-60 [24]
  GI50: 3150 nM
[12]
  Ki: 370 nM

## CO[C@@]1(CN2CCN3CCCC[C@@H]3C2)/C=C/C[C@H](C)[C@@H](C)S(=O)(=O)NC(=O)c2ccc3c(c2)N(C[C@@H]2CC[C@H]21)C[C@@]1(CCCc2cc(Cl)ccc21)CO3
OPM-2
  IC50: 50 nM
MV4-11 [25]
  IC50: 150 nM

## Cc1cc(OCCCn2ccc3cc(C(=O)O)ccc32)cc(C)c1Cl
[11]
  Ki: 12900 nM
[12]
  Ki: 8850 nM

## Cc1cc2c(C(C)C)c(O)c(O)cc2c(O)c1-c1c(C)cc2c(C(C)C)c(O)c(O)cc2c1O [APOGOSSYPOL]
[26]
  IC50: 2800 nM

## Cc1c2c(nn1C)CSCc1cc(n(C)n1)CSc1cc(c3ccccc3c1)OCCCc1c(C(=O)O)n(C)c3c-2c(Cl)ccc13 [AZD-5991]
MOLP-8
  EC50: > 16000 nM

## COC1=CC(c2cc3ccccc3[nH]2)=N/C1=C\c1[nH]c(C)cc1C [OBATOCLAX]
[11]
  Ki: 200 nM
Bcl-2-like protein 1 [2]
  Ki: > 1000 nM
[12]
  Ki: > 1000 nM

## CO[C@H]1/C=C/C[C@H](C)[C@@H](C)S(=O)(=O)NC(=O)c2ccc3c(c2)N(C[C@@H]2CC[C@H]21)C[C@@]1(CCCc2cc(Cl)ccc21)CO3 [TAPOTOCLAX]
MV4-11 [25]
  IC50: 150 nM
